One may read the IC50 as the midpoint of a concentration-inhibition curve. High values mean weaker potency in that assay, low ones greater potency in that assay.

Where a name gives a salt, the structure may show the parent alone.

The results in this text go back to US20110172230A1, “UREA COMPOUND OR SALT THEREOF” (priority 2006, published 2011).

In the assay the target is T1, FAAH (Homo sapiens, UniProt O00519).
T1 construct: host or cells: 5637 human bladder epithelial cancer-derived cells, not transfected
T1 sequence (O00519 1-579): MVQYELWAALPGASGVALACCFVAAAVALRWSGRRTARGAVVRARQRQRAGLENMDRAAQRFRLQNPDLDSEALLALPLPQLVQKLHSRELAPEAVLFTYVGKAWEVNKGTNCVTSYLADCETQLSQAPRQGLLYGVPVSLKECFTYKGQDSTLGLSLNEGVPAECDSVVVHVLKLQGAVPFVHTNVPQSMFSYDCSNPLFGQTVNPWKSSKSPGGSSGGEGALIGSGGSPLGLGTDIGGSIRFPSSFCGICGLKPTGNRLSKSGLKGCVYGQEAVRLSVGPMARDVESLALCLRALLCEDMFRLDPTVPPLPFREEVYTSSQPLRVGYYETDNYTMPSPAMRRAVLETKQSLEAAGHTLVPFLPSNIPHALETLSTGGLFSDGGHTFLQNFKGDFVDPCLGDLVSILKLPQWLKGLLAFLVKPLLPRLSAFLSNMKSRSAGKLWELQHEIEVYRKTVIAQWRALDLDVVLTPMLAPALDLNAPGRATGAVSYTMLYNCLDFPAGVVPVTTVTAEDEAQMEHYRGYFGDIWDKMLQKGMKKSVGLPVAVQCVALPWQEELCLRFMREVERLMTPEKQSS
The experiment in a line: Screening for an FAAH activity-inhibiting substance with human bladder epithelial cancer-derived cell line 5637 cells (IC50). Format: cell-based. The settings on record: FAAH activity in human bladder epithelial cancer-derived 5637 cells, 37° C., 30 minutes. Here is the method: Screening for an FAAH Activity-Inhibiting Substance with a Human Bladder Epithelial Cancer-Derived Cell
(1) Screening for an FAAH Activity Inhibiting Substance
Human bladder epithelial cancer-derived cell line 5637 cells (HTB-9; ATCC) were seeded on a 48-well cell culture plate in an amount of 1×10^5 cell/well, using 10% fetal bovine serum (HyClone)-containing RPMI1640 medium (Invitrogen Corporation). After incubated at 37° C. for 12 hours or longer, the cells were washed with 400 μl/well of a buffer (Hank's Balanced Salt Solution, 20 mM Hepes-NaOH (pH 7.4)). A test substance dissolved in DMSO was added to a substrate solution (the above buffer containing 3 μCi/ml radiolabeled anandamide (Anandamide [ethanolamine 1-^3H]) and 10 μM anandamide) so as to have a concentration from 0.003 nM to 30 nM. As a control, DMSO alone was added. 100 μl/well of the substrate solution was added to the above cells, and incubated in a CO2 incubator at 37° C. for 30 minutes. Next, the cell culture plate was transferred onto ice, and the substrate solution was removed by suction; and 75 μl/well of a cytolytic solution (the above buffer containing 0.5% Triton X-100, and 10 μM of FAAH-inhibitory activity-having compound, 3′-carbamoylbiphenyl-3-yl ester (URB597; Cayman chemical; Kathuria et al., Nature Med., Vol. 9, pp. 76-81, 2003)) was added thereto, followed by stirring. The resulting cell lysate in every well was individually transferred into a 1.5 ml sample tube, to which was added 150 μl of 1:1 (ratio by volume) chloroform/methanol solution, followed by vortexing. This was centrifuged (15000 rpm, 2 minutes), whereby the decomposed product, ethanolamine (ethanolamine 1-^3H) was separated in the upper layer (water/methanol layer) and the unreacted radiolabeled anandamide was in the lower layer (chloroform layer). 25 μl of the upper layer was transferred into a 96-well organic solvent-resistant white microplate (PicoPlate-96; Perkin Elmer, Inc.), 150 μl of Microscint-20 (Perkin Elmer, Inc.) was added thereto, and this was measured with a microplate scintillation counter (TopCount™; Beckman Coulter, Inc.). As compared with the control, the substance that gave a decreased value was selected as an FAAH activity-inhibiting substance.
(2) Measurement of the IC50 Value of the FAAH Activity Inhibiting Substance
The compound dissolved in DMSO to have a concentration of 10 mM was dissolved in the substrate solution so as to have a varying concentration from 0.003 nM to 30 nM. According to the method mentioned above, the compound was analyzed for its influence on FAAH activity. As a negative control, DMSO was used. As a positive control, URB597 was added to the substrate solution to have a concentration of 10 μM. Based on the measured value of the positive control, 0%, and on the measured value of the negative control, 100%, the IC50 value of the test substance was obtained. Furthermore, Ex represents Example No. as denoted below.

With `O=C(Nc1cccnc1)N1CCC(Oc2ccc(OCc3cccc(F)c3)cc2)CC1` [Example 1, 4-{4-[(3-fluorobenzyl)oxy]phenoxy}-N-(pyridin-3-yl)piperidine-1-carboxamide hydrochloride], the midpoint of inhibition, the IC50, lay at 5.6 nM.

As to `O=C(N1CCC(Oc2ccc(OCc3cccc(F)c3)cc2)CC1)n1ccnc1` [Example 12, 4-{4-[(3-fluorobenzyl)oxy]phenoxy}-1-(1H-imidazol-1-ylcarbonyl)piperidine], the IC50 came out at 0.06 nM.

Consider `O=C(c1ccc(OCc2cccc(F)c2)cc1)C1CCN(C(=O)Nc2cccnc2)CC1` [Example 59], for which the IC50 came out at 0.82 nM.

`O=C(c1ccc(OCCC2CCCCC2)cc1)C1CCN(C(=O)Nc2cccnc2)CC1` [Example 75]: the IC50 is 0.81 nM.

`O=C(Cc1ccc(OCc2cccc(F)c2)cc1)N1CCN(C(=O)Nc2cccnc2)CC1` [Example 136] gave an IC50 of 0.22 nM.

Turning to `O=C(Nc1ccc(-n2cccn2)nc1)N1CCN(C(=O)c2cccc(OCCC3CCCCC3)c2)CC1` [Example 156], half-maximal inhibition (IC50) required 0.33 nM.

`Nc1ccnn1C(=O)N1CCN(C(=O)c2cccc(OCCC3CCCCC3)c2)CC1` [Example 159] came in with an IC50 of 0.29 nM.

`CC(=O)Nc1ccc(NC(=O)N2CCN(C(=O)c3cccc(OCCC4CCCCC4)c3)CC2)cn1` [Example 179] registered an IC50 of 0.21 nM.

For the molecule `O=C(c1ccc(OCc2cccc(F)c2)cc1)N1CCN(C(=O)n2ccnc2)CC1` [Example 300], inhibition was half-maximal at 0.16 nM (IC50).

`CCCCCCOc1ccc(C(=O)N2CCN(C(=O)Nc3cccnc3)CC2)cc1` [Example 317] came in with an IC50 of 0.57 nM.

For the molecule `O=C(Nc1cccnc1)N1CCN(C(=O)c2cccc(OCC3CCCCC3)c2)CC1` [Example 320], half-maximal inhibition (IC50) was put at 0.24 nM.

Turning to `CN(Cc1cccc(F)c1)c1ccc(C(=O)N2CCN(C(=O)Nc3cccnc3)CC2)cc1` [Example 322], it took 0.54 nM to reach half-maximal inhibition (IC50).

In turn, `O=C(Nc1cccnc1)N1CCN(Cc2cccc(OCCC3CCCCC3)c2)CC1` [Example 388] gave an IC50 of 0.08 nM.

In turn, `O=C(Nc1cccnc1)N1CCN(C(=O)c2cccc(OCCc3ccccc3)c2)CC1` [Example 426] registered an IC50 of 0.12 nM.

`O=C(Nc1nccnc1Cl)N1CCC(Oc2cccc(OCCC3CCCCC3)c2)CC1` [Example 488]: the IC50 worked out at 0.85 nM.
